Here are results for 1 compound from patent publication US12716077B2, “Fermentative production of isoprenoids” (DSM IP ASSETS B.V., priority 2020, dated 2026).

Series [1] can be described thus: Loss (consumption, evaporation or other disappearance) of the 2nd phase solvent during the fermentation. Further details: species or system Yarrowia lipolytica. The settings on record: loss of initial solvent volume, shake plate assay, after 4 days of growth period. The text has this: As used herein, the term “not disappearing” in connection with the second phase solvents as defined herein means that the same amount of solvent present at the start of the fermentation is still detectable at the end of the fermentation process. A loss or disappearance of solvent might be due to e.g. consumption by the host cell and/or evaporation during the fermentation. The terms “loss” or “disappearance” are used interchangeably herein. Such solvent as used for the process of the present invention is also called a “stable” solvent. Thus, a stable solvent according to the present invention means a loss or disappearance of the solvent during the fermentation in the range of about 20% or less, e.g. in the range of about 20, 15, 10, 8, 5, 3, 2, 1% or even no loss or disappearance of the solvent during the fermentation.
Shake plate assay. Typically, 200 μl of 0.25% yeast extract, 0.5% peptone (0.25X YP) is inoculated with 10 μl of freshly grown Yarrowia and overlaid with 200 μl of solvent. Candida rugosa Lipase (Creative enzymes) was resuspended in PBS and added to the growth media when the carbon source was 2% corn oil. […] The second phase (Drakeol 5, or others listed in table 6) fraction was removed from the shake plate wells and analyzed by UPLC on a normal phase column and/or C4 HPLC, with a photo-diode array detector (see details below). […]

Series [2] in a line: Density and viscosity in dependence of the solvent used as 2nd phase. In kind it is physicochemical. Here is the method:
The performance of said 2nd phases were tested with regards to growth, loss (consumption, evaporation or other ways of disappearance) of the solvents during the fermentation and the density and viscosity of the cultivation medium, wherein the test was carried out after 4 days of growth period.

As for `CCCCCCCCCCCC` [dode, n-dodecane], the Loss in series [1] is listed as 100%; in series [1] (listed as n-dodecane) it was “completely disappeared”. The “Density” value in series [2] was 0.75 g/mL. This compound showed a Viscosity in series [2] (measured at 20° C.) of 1.34.
